Converted amounts (≈) assume the structure as drawn. Non-standard residues stand in square brackets, D forms with d. Residues, ends and D or L forms follow the SMILES beside them. Hyp = O=C(O)[C@@H]1C[C@@H](O)CN1; dOrn = NCCC[C@@H](N)C(=O)O; Orn = NCCC[C@H](N)C(=O)O
Experiments:
[1] = system: E. coli BL21 A1; assay type: cell-based, Escherichia coli; conditions: BL21, 20 h
Protocol: (§1) The minimum inhibitory concentrations (MIC) of the antimicrobial peptides and peptide derivatives were determined in microdilution assays. These used a continuous peptide dilution in sterile flat-bottomed 96-well microtiter plates (polystyrene, Greiner Bio-One GmbH, Frickenhausen, Germany) and a total volume of 100 μL per well. The aqueous peptide or peptidomimetic solutions were diluted with 1% TSB water, to obtain a final concentration of 256 μg/mL. 50 μL of the peptide or peptidomimetic solution was pipetted into the first well of each series and stirred. From this solution, 50 μL was transferred to the second well, stirred and again 50 μL was transferred to the next well, and so on. A double dilution series is obtained, beginning at 256 μg/mL in the first well to 125 ng/mL in the twelfth well. The bacteria, e.g. E. coli BL21 A1, were cultured overnight at 37° C. in nutrient broth (NB, Carl Roth GmbH+Co. KG, Karlsruhe, Germany). 50 μL of a 5×10^6 bacteria/mL suspension in 1% TSB was added to each well of the microtiter plate and thus a final concentration of the peptides or peptidomimetics from 128 μg/mL (well 1) to 62.5 ng/mL (well 12) was established in each series. The plates were incubated at 37° C. for 20 h and then the absorption was measured at 595 nm with a TECAN microtiter plate spectrophotometer (Tecan Trading AG, Mannedorf, Switzerland). The MIC values of all peptides and peptidomimetics were determined in triplicate. Sterile water was used as negative control. The MIC value represents the lowest peptide concentration at which no bacterial growth is observed after an incubation time of 20 h at 37° C.
(§2) The MIC values of the peptides and peptide derivatives against Escherichia coli BL21 A1 and Micrococcus luteus ATCC 10240 are given in Table 7.

[2] = system: M. luteus 10240; test: Growth inhibition assay (microdilution MIC); assay type: cell-based, Micrococcus luteus; conditions: 10240, 20 h
Protocol: as §1, §2

Compound | MIC E. coli BL21 A1 [1] [µg/mL] | MIC M. luteus 10240 [2] [µg/mL]
CC[C@H](C)[C@H](NC(=O)[C@H](CCCNC(=N)N)NC(=O)[C@H](CCCNC(=N)N)NC(=O)[C@@H]1CCCN1C(=O)[C@@H]1CCCN1C(=O)[C@H](CCCNC(=N)N)NC(=O)[C@@H]1CCCN1C(=O)[C@H](CCCNC(=N)N)NC(=O)[C@@H]1CCCN1C(=O)[C@H](CC(C)C)NC(=O)[C@H](Cc1ccc(O)cc1)NC(=O)[C@@H]1CCCN1C(=O)[C@@H]1CCCN1C(=O)[C@H](CCCCN)NC(=O)[C@H](CC(=O)O)NC(=O)[C@@H](N)CCCN)C(=O)N[C@@H](Cc1ccc(O)cc1)C(=O)N[C@@H](CC(N)=O)C(=O)N[C@@H](CCCNC(=N)N)C(N)=O [compound 82] (H-[Orn]DKPPYLPRPRPPRRIYNR-NH2) | 8 (≈ 3.33 µM) | 8 (≈ 3.33 µM)
CC[C@H](C)[C@H](NC(=O)[C@H](CCCNC(=N)N)NC(=O)[C@H](CCCNC(=N)N)NC(=O)[C@@H]1CCCN1C(=O)[C@@H]1CCCN1C(=O)[C@H](CCCNC(=N)N)NC(=O)[C@@H]1CCCN1C(=O)[C@H](CCCNC(=N)N)NC(=O)[C@@H]1CCCN1C(=O)[C@H](CC(C)C)NC(=O)[C@H](Cc1ccc(O)cc1)NC(=O)[C@@H]1CCCN1C(=O)[C@@H]1CCCN1C(=O)[C@H](CCCCN)NC(=O)[C@H](CC(=O)O)NC(=O)[C@H](CCCN)NC(=O)[C@@H](CS)NC(=O)[C@H](C)N)C(=O)N[C@@H](Cc1ccc(O)cc1)C(=O)N[C@@H](CC(N)=O)C(=O)N[C@@H](CCCNC(=N)N)C(N)=O [compound 83] (H-A[dC][Orn]DKPPYLPRPRPPRRIYNR-NH2) | 16 (≈ 6.2 µM) | 16 (≈ 6.2 µM)
CC[C@H](C)[C@H](NC(=O)[C@H](Cc1ccc(O)cc1)NC(=O)[C@H](CC(N)=O)NC(=O)[C@@H](N)CCCN)C(=O)N[C@@H](CCCN)C(=O)N[C@@H](CCCNC(=N)N)C(=O)N1CCC[C@H]1C(=O)N1CCC[C@H]1C(=O)N[C@@H](CCCNC(=N)N)C(=O)N1CCC[C@H]1C(=O)N[C@@H](CCCNC(=N)N)C(=O)N1CCC[C@H]1C(=O)N[C@@H](CC(C)C)C(=O)N[C@@H](Cc1ccc(O)cc1)C(=O)N1CCC[C@H]1C(=O)N1CCC[C@H]1C(=O)N[C@@H](CCCCN)C(=O)N[C@@H](CC(=O)O)C(=O)N[C@H](C(N)=O)C(C)C [compound 113] (H-[Orn]NYI[Orn]RPPRPRPLYPPKDV-NH2) | >256 | 64 (≈ 27.8 µM)
CC[C@H](C)[C@H](NC(=O)[C@H](Cc1ccc(O)cc1)NC(=O)[C@H](CC(N)=O)NC(=O)[C@@H](N)CCCN)C(=O)N1C[C@H](O)C[C@H]1C(=O)N[C@@H](CCCNC(=N)N)C(=O)N1CCC[C@H]1C(=O)N1CCC[C@H]1C(=O)N[C@@H](CCCNC(=N)N)C(=O)N1CCC[C@H]1C(=O)N[C@@H](CCCNC(=N)N)C(=O)N1CCC[C@H]1C(=O)N[C@@H](CC(C)C)C(=O)N[C@@H](Cc1ccc(O)cc1)C(=O)N1CCC[C@H]1C(=O)N1CCC[C@H]1C(=O)N[C@@H](CCCCN)C(=O)N[C@@H](CC(=O)O)C(=O)N[C@H](C(N)=O)C(C)C [compound 114] (H-[Orn]NYI[Hyp]RPPRPRPLYPPKDV-NH2) | >256 | 128 (≈ 55.5 µM)
CC[C@@H](C)[C@@H](NC(=O)[C@@H](CCCNC(=N)N)NC(=O)[C@@H](CCCNC(=N)N)NC(=O)[C@H]1CCCN1C(=O)[C@H]1CCCN1C(=O)[C@@H](CCCNC(=N)N)NC(=O)[C@H]1CCCN1C(=O)[C@@H](CCCNC(=N)N)NC(=O)[C@H]1CCCN1C(=O)[C@@H](CC(C)C)NC(=O)[C@@H](Cc1ccc(O)cc1)NC(=O)[C@H]1CCCN1C(=O)[C@H]1CCCN1C(=O)[C@@H](CCCCN)NC(=O)[C@@H](CC(=O)O)NC(=O)[C@H](N)C(C)C)C(=O)N[C@H](Cc1ccc(O)cc1)C(=O)N[C@H](CC(N)=O)C(=O)N[C@H](CCCNC(=N)N)C(N)=O [compound 115] (H-[dV][dD][dK][dP][dP][dY][dL][dP][dR][dP][dR][dP][dP][dR][dR][dI][dY][dN][dR]-NH2) | 64 (≈ 26.8 µM) | 16 (≈ 6.69 µM)
CC[C@@H](C)[C@@H](NC(=O)[C@@H](CCCN)NC(=O)[C@@H](CCCNC(=N)N)NC(=O)[C@H]1CCCN1C(=O)[C@H]1CCCN1C(=O)[C@@H](CCCNC(=N)N)NC(=O)[C@H]1CCCN1C(=O)[C@@H](CCCNC(=N)N)NC(=O)[C@H]1CCCN1C(=O)[C@@H](CC(C)C)NC(=O)[C@@H](Cc1ccc(O)cc1)NC(=O)[C@H]1CCCN1C(=O)[C@H]1CCCN1C(=O)[C@@H](CCCCN)NC(=O)[C@@H](CC(=O)O)NC(=O)[C@H](N)C(C)C)C(=O)N[C@H](Cc1ccc(O)cc1)C(=O)N[C@H](CC(N)=O)C(=O)N[C@H](CCCN)C(N)=O [compound 116] (H-[dV][dD][dK][dP][dP][dY][dL][dP][dR][dP][dR][dP][dP][dR][dOrn][dI][dY][dN][dOrn]-NH2) | 64 (≈ 27.8 µM) | 32 (≈ 13.9 µM)
CC[C@@H](C)[C@@H](NC(=O)[C@@H](Cc1ccc(O)cc1)NC(=O)[C@@H](CC(N)=O)NC(=O)[C@H](N)CCCN)C(=O)N[C@H](CCCN)C(=O)N[C@H](CCCNC(=N)N)C(=O)N1CCC[C@@H]1C(=O)N1CCC[C@@H]1C(=O)N[C@H](CCCNC(=N)N)C(=O)N1CCC[C@@H]1C(=O)N[C@H](CCCNC(=N)N)C(=O)N1CCC[C@@H]1C(=O)N[C@H](CC(C)C)C(=O)N[C@H](Cc1ccc(O)cc1)C(=O)N1CCC[C@@H]1C(=O)N1CCC[C@@H]1C(=O)N[C@H](CCCCN)C(=O)N[C@H](CC(=O)O)C(=O)N[C@@H](C(N)=O)C(C)C [compound 118] (H-[dOrn][dN][dY][dI][dOrn][dR][dP][dP][dR][dP][dR][dP][dL][dY][dP][dP][dK][dD][dV]-NH2) | 256 (≈ 111 µM) | 32 (≈ 13.9 µM)
H-ADKPPYLPRPRPPRRIYNR-NH2 [compound 29] | 8 | 4
H-DKPPYLPRPRPPRRIYNR-NH2 [compound 86] | 32 | 8
H-VAKPPYLPRPRPPRRIYNR-NH2 [compound 30] | 16 | 4
H-VDAPPYLPRPRPPRRIYNR-NH2 [compound 31] | 64 | 32
H-VDKAPYLPRPRPPRRIYNR-NH2 [compound 32] | 8 | 8
H-VDKPAYLPRPRPPRRIYNR-NH2 [compound 33] | 8 | 8
H-VDKPPALPRPRPPRRIYNR-NH2 [compound 34] | 128 | 16
H-VDKPPYAPRPRPPRRIYNR-NH2 [compound 35] | 128 | 16
H-VDKPPYIPRPRPPRRIYNR-NH2 [compound 77] | 32 | 8
H-VDKPPYLARPRPPRRIYNR-NH2 [compound 36] | 32 | 8

Compound | MIC E. coli BL21 A1 [1] [µg/mL] | MIC M. luteus 10240 [2] [µg/mL]
H-VDKPPYLPAPRPPRRIYNR-NH2 [compound 37] | 32 | 32
H-VDKPPYLPRARPPRRIYNR-NH2 [compound 38] | 32 | 8
H-VDKPPYLPRPAPPRRIYNR-NH2 [compound 39] | 64 | 16
H-VDKPPYLPRPFPPRRIYNR-OH [compound 13] | 64 | 32
H-VDKPPYLPRPHPPRRIYNNR-OH [compound 8] | 64 | 32
H-VDKPPYLPRPHPPRRIYNRN-OH [compound 9] | 64 | 16
H-VDKPPYLPRPKPPRRIYNR-NH2 [compound 7] | 8 | 16
H-VDKPPYLPRPKPPRRIYNRN-OH [compound 6] | 32 | 16
H-VDKPPYLPRPNPPRRIYNR-OH [compound 11] | 64 | 64
H-VDKPPYLPRPPPPRRIYNNR-OH [compound 2] | 128 | 64
H-VDKPPYLPRPQPPRRIYNR-OH [compound 12] | 64 | 64
H-VDKPPYLPRPRAPRRIYNR-NH2 [compound 40] | 16 | 8
H-VDKPPYLPRPRPARRIYNR-NH2 [compound 41] | 16 | 8
H-VDKPPYLPRPRPPARIYNR-NH2 [compound 42] | 16 | 32
H-VDKPPYLPRPRPPRAIYNR-NH2 [compound 43] | 32 | 16
H-VDKPPYLPRPRPPRHIYNH-NH2 [compound 64] | 8 | 32
H-VDKPPYLPRPRPPRPIRV-OH [compound 48] | 128 | 8
